Data set [1] concerns the target T1, PAF receptor (Homo sapiens, UniProt P25105). Kind of data set: PAF receptor agonist response (increase of intracellular calcium). It is filed as cell-based. As to conditions: 0.3 and 2 μM, FIG. 11B. The procedure:
(§1) FIG. 11: Effects of JPH1701 on PAF receptor, PLC and PKCs activities. FIG. 11A) Histogram showing the percentage of control specific binding of 3H-C16-PAF to recombinant PAF receptor obtained from membrane homogenates of CHO cells by 0.3 and 2 μM edelfosine and by 0.3 and 2 μM JPH1701. FIG. 11B) Histogram showing the percentage of control agonist response (% effect i.e: increase of intracellular calcium concentration) of 0.3 and 2 μM edelfosine and JPH1701 on PAF receptor normalized to the response induced by 100 nM C16-PAF. […] FIG. 11C-D) Dose responses curves showing the effect of JPH1701 on PKCs (FIG. 11C, PKCs are: alpha, Beta 1, Beta 2, Gamma, Delta, Epsilon, Zeta, Eta, Theta, Iota) and PhosphoLipase C (PLC) activities (FIG. 11D).
(Calcium flux is commonly read through the fluorescence of an indicator in the cells.)

A short description of data set [2]: Cytotoxicity / cell viability (MTT, tetrazolium salt reduction). As to conditions: human.
In data set [3] the test system is MDA-MB-435s. Described as above.
Another data set has as its system MDA-MB-435s (SK3+). Kind of data set: Cell migration / 2D motility assay (transwell inserts, wound healing). In kind it is cell-based, human. As to conditions: for Effect on cell migration: summary of table 2. The text has this:
Alternatively, the cell migration inhibitory activity of a compound of formula (I) may be assessed by performing a Wound Healing assay that is disclosed in the examples herein and for which the one skilled in the art may also refer to the article of Rodriguez et al. (2005, Methods Biol Mol, Vol. 294: 23-29). The wound-healing assay is simple, inexpensive, and one of the earliest developed methods to study directional cell migration in vitro. This method mimics cell migration during wound healing in vivo. The basic steps involve creating a “wound” in a cell monolayer, capturing the images at the beginning and at regular intervals during cell migration to close the wound, and comparing the images to quantify the migration rate of the cells. It is particularly suitable for studies on the effects of cell-matrix and cell-cell interactions on cell migration. Cells are seeded in culture dishes and grown until confluence in DMEM supplemented with 10% foetal calf serum. The monolayer is then scratched with a sterile yellow pipette tip. Then, migration of cells to the cleared area is inspected under a microscope. Pictures are taken directly at the time of scratching and after 24 h, so as to determine the ability of the tested cells to migrate.
Wound healing assay: Cells were seeded in culture dishes and grown until confluence in DMEM supplemented with 10% foetal calf serum. The monolayer was scratched with a sterile yellow pipette tip. The migration of cells to the cleared area was inspected under a microscope. Pictures were taken directly at the time of scratching and after 24 h.
At least three independent experiments were each performed in triplicate.

The target in a further data set is PhosphoLipase C (PLC). As to the kind of experiment: PhosphoLipase C activity. In kind it is biochemical. As to conditions: FIG. 11D. As for the experimental part:
as §1

For data set [4], the target named is T1, PAF receptor. As to the kind of experiment: 3H-C16-PAF binding, membrane homogenates of CHO cells. As to conditions: 0.3 and 2 μM, FIG. 11A. Also on record: expressed in transfected cells; host or cells: CHO cells (membrane homogenates). The procedure: as §1
A further data set deals with SK3/KCa2.3 channel (Homo sapiens, UniProt Q9UGI6). As to the kind of experiment: Whole-cell patch clamp on HEK293 cells expressing SK3. As to conditions: for Conductance decreasing / Inhibition of I at 0 mV: HEK 293 LvSK3 cells; for Inhibition of I at 0 mV: 10 μM stated for JPH1701; for Effect on SK3 activity: less effect than JPH1701. It is filed as cell-based. Also on record: expressed in transfected cells; host or cells: HEK293, lentiviral transduction, clonal selection. The procedure: The percentages of inhibition represent the ratio (SK3 current amplitude and chord conductance (in the presence of 10 μM JPH1701)/SK3 current amplitude in control experiments). Black bars show current at 0 mV and grey bars indicate the chord conductance. […] Columns, mean, bars, SEM, (5 cells for racemic mix and 4 cells for + and − forms).
MDA-MB-435s and HEK293 cells were transduced with lentiviral vector at multiplicities of infection (MOI) of 1 to 3 in the presence of polybrene (4 μg/ml, Sigma).
Experiments were performed with cells seeded into 35-mm Petri dishes at 3000 cells per cm2. All experiments were performed using the conventional whole-cell recording configuration of the patch-clamp technique as previously described. PCa solution was 7 and 6.4 respectively for MDA-MB-435s and HEK293-SK3/KCa2.3 cells.
Briefly, experiments were conducted using Axopatch 200B patch-clamp amplifier (Axon Instrument) and data, digitized with 1322-A Digidata converter (Axon Instrument), were stored on a computer using Clampex of pClamp 9.2 software (Axon Instru-ment). The patch-clamp data was analyzed using both Clampfit 9.2 and Origin 7.0 software (Microcal Inc., Northampton, Mass., USA).
The pipette solution for the whole-cell recordings contained (in mM): K-glutamate 125, KCl 20, MgCl2 1, Mg-ATP 1, HEPES 10, and pH was adjusted to 7.2 with KOH and various concentrations of CaCl2 and EGTA were added to obtain calculated pCa=7 (0.37 mM CaCl2 and 10 mM EGTA) or pCa=6.4 (0.7 mM CaCl2 and 1 mM EGTA).
We next developed HEK cells expressing SK3/KCa2.3 channel in order to test directly analogues on SK3 activity measured using patch-clamp technique (FIG. 8). […] The JPH1701-induced inhibition of SK3 current was analysed at 0 mV and the entire time course of the experiment is depicted in FIG. 8A.
Current activity has been measured in HEK 293 LvSK3 and in MDA-MB-435s cells. The percentages represent the inhibition of current and of conductance by compounds on SK3 channel in HEK 293 cells.
A general note: In patch-clamp work, channel activity is measured electrically.

The test system of data set [5] is MDA-MB-435s.
Setting [6] is: Table 2, viability of MDA-MB-435s.
Setting [7] is: Homo sapiens, MDA-MB-435S, Table 2, concentration 300 nM.

The results in this text go back to patent US9161944B2, “Method for preventing cancer metastasis” (INSERM (INSTITUT NATIONAL DE LA SANTE ET DE LA SANTE ET DE …, priority 2010, dated 2015).

Read-outs that look alike come from different tables or passages of the source.

T1 sequence (P25105 whole entry): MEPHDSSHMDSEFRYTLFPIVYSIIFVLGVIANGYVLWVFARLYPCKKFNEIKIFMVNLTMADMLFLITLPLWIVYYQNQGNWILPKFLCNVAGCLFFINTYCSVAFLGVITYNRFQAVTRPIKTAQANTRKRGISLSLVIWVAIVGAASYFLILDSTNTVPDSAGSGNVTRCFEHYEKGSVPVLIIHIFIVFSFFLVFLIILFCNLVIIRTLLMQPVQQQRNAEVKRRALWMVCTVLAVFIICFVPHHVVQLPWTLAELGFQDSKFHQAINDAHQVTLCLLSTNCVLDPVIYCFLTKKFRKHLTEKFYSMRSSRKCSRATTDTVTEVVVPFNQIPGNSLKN

Take `CCCCCCCCCCCCCCCCCCOCC(COP(=O)([O-])OCC[N+](C)(C)C)OC` (centres unmarked) [Edelfosine, reference compound]: on PAF receptor [1], the “PAF receptor agonist response” value is recorded as “dose-dependently increase intracellular calcium”. Further, the IC50 – broadly, the concentration that inhibits the measured activity by half – at 24 h in data set [2] (MDA-MB-435s cells (metastatic cancer cell line)) was less than 5 µM. In addition, the IC50 in the data set with MDA-MB-435s [3] (Homo sapiens, MDA-MB-435S) was roughly 5 µM; against PhosphoLipase C (PLC), 2.5 µM. Further, in the data set on MDA-MB-435s [3] (setting [6]), the Toxicity result is recorded as “Yes at 10 μM”. Moreover, the inhibition at 0.01 µM with MDA-MB-435s (SK3+) (Homo sapiens, MDA-MB-435S, Table 2, concentration 10 nM) was 60%. The compound also registered an inhibition at 0.3 µM with MDA-MB-435s (SK3+) (setting [7]) of 80%. The “Interaction with C16-PAF binding site of PAF receptor” value at PAF receptor [4] is given as “able to interact”.
For the compound `CCCCCCCCCCCCCCCCOC[C@H](CO[C@@H]1O[C@H](CO[C@H]2O[C@H](COC(C)=O)[C@H](OC(C)=O)[C@H](OC(C)=O)[C@H]2OC(C)=O)[C@@H](OC(C)=O)[C@H](OC(C)=O)[C@H]1OC(C)=O)OC` [JPH1874], at SK3/KCa2.3 channel, the Conductance decreasing worked out at 34.1 ± 6.8% and the “Inhibition of I at 0 mV” value is recorded as 44.0 ± 5.5%.
`CCCCCCCCCCCCCCCCOCC(COP(=O)([O-])OCC[N+](C)(C)C)OC(C)=O` (centres unmarked) [PAF, reference compound]: the Toxicity result in the data set on MDA-MB-435s [3] (setting [6]) is “No until 100 μM”. Moreover, the “Migration (% of inhibition)” value in the data set on MDA-MB-435s (SK3+) (Table 2, concentration 300 nM) is on record as “No effect”. Besides, the “Effect on cell migration” value in the data set with MDA-MB-435s (SK3+) is “no effect on cell migration”.
Turning to `CCCCCCCCCCCCCCCCOC[C@H](CO[C@@H]1O[C@H](COC(C)=O)[C@@H](O[C@H]2O[C@H](COC(C)=O)[C@@H](OC(C)=O)[C@H](OC(C)=O)[C@H]2OC(C)=O)[C@H](OC(C)=O)[C@H]1OC(C)=O)OC` [JPH1880], at SK3/KCa2.3 channel, the Conductance decreasing stood at 46.1 ± 6.1% and the “Inhibition of I at 0 mV” value came out at 44.7 ± 5.0%.
Turning to `CCCCCCCCCCCCCCCCOCC(COP(=O)(O)OCC[N+](C)(C)C)OC` (centres unmarked) [JPH 1321], the half-maximal inhibitory concentration (IC50) at 24 h in data set [2] (MDA-MB-435s cells) is roughly 30 µM. Further, the inhibition at 0.1 µM in the data set with MDA-MB-435s (SK3+) (Homo sapiens, MDA-MB-435S, Table 1, concentration 100 nM, read-out: Cell Migration inhibition of MDA-MB-435s (SK3+), Inhibitory effect) worked out at 50%.
Turning to `CCCCCCCCCCCCCCCCOC[C@H](CO[C@@H]1O[C@H](COC(C)=O)[C@@H](O[C@@H]2O[C@H](COC(C)=O)[C@H](OC(C)=O)[C@H](OC(C)=O)[C@H]2OC(C)=O)[C@H](OC(C)=O)[C@H]1OC(C)=O)OC` [JPH1700], on SK3/KCa2.3 channel, the Conductance decreasing is given as 18.1 ± 2.3%, the “Inhibition of I at 0 mV” value was 22.8 ± 2.1% and the “Effect on SK3 activity” value is “reduced SK3 activity”.
The corresponding values for `CCCCCCCCCCCCCCCCOCC(COP(=O)(O)OC1OC(COC(C)=O)C(OC2OC(COC(C)=O)C(OC(C)=O)C(OC(C)=O)C2OC(C)=O)C(OC(C)=O)C1OC(C)=O)OC.CCN(CC)CC` (mixture of isomers) [CHS31] are 38.9 ± 5.5%, 42.5 ± 8.2% and “reduced SK3 activity”.
With `CCCCCCCCCCCCCCCCOCC(CO[C@@H]1O[C@H](CO)[C@H](O)[C@H](O)[C@H]1O)OC` (some centres unmarked) [JPH 1524], in the data set with MDA-MB-435s [5], the Toxicity entry is recorded as “Yes at 10 μM”. For the same compound, the half-inhibitory concentration (IC50) in the data set with MDA-MB-435s [3] (setting [6]) is roughly 10 µM. In addition, the “Migration (% of inhibition)” value in the data set on MDA-MB-435s (SK3+) (Table 2, concentration 300 nM) is 20%.
For the compound `CCCCCCCCCCCCCCCCOP(=O)([O-])OCC[N+](C)(C)C` [Miltefosine, reference compound], the half-inhibitory concentration (IC50) in the data set on MDA-MB-435s [3] (Homo sapiens, MDA-MB-435S) was roughly 10 µM. The inhibition at 0.3 µM in the data set on MDA-MB-435s (SK3+) (setting [7]) is 20%. Besides, the “Effect on cell migration” value in the data set on MDA-MB-435s (SK3+) was “ineffective on cell migration”.
For the compound `CCCCCCCCCCCCCCCCCCOP(=O)([O-])OCC[N+](C)(C)C` [SK55], the 50% inhibitory concentration (IC50) with MDA-MB-435s [3] (setting [6]) is roughly 20 µM. In the data set on MDA-MB-435s (SK3+), the “Effect on cell migration” value was “ineffective on cell migration”.
Consider `CCCCCCCCCCCCCCCCOCC(CO)OC` (centres unmarked) [JPH 1597], for which the Toxicity entry with MDA-MB-435s [5] is listed as “No at 10 μM”. In addition, the IC50 in the data set on MDA-MB-435s [3] (setting [6]) is roughly 50 µM. Further, the “Migration (% of inhibition)” value in the data set with MDA-MB-435s (SK3+) (Table 2, concentration 300 nM) was “No effect”. Besides, the “Effect on cell migration” value with MDA-MB-435s (SK3+) is recorded as “decrease its inhibitory effect on cell migration”.
`CCCCCCCCCCCCCCCCCCOCC(CO[C@@H]1O[C@H](CO)[C@@H](O[C@@H]2O[C@H](CO)[C@H](O)[C@H](O)[C@H]2O)[C@H](O)[C@H]1O)OC` (some centres unmarked) [JPH 1731]: the “Migration (% of inhibition)” value in the data set with MDA-MB-435s (SK3+) (Table 2, concentration 100 nM) is 30%.
The same measure, in the same setting: in the case of `CCCCCCCCCCCCCCCCOCC(CO[C@@H]1O[C@H](COC(C)=O)[C@H](OC(C)=O)[C@H](OC(C)=O)[C@H]1OC(C)=O)OC` (some centres unmarked) [JPH 1519] it was 20%.
On to `CCCCCCCCCCCCCCCCOCC(O)CO` (centres unmarked) [GS 1361], for which, in the data set with MDA-MB-435s [5], the Toxicity result is on record as “No at 10 μM”. Moreover, the “Migration (% of inhibition)” value with MDA-MB-435s (SK3+) (Table 2, concentration 300 nM) was found to be 40%.
Regarding `CCCCCOCC(O)CO[C@@H]1O[C@H](CO)[C@@H](O)[C@H](O)[C@H]1O` (some centres unmarked) [HCG451], the Toxicity entry in the data set with MDA-MB-435s [5] was “No until 100 μM”. Moreover, the “Migration (% of inhibition)” value with MDA-MB-435s (SK3+) (Table 2, concentration 300 nM) was “No effect”. Also, the “Effect on cell migration” value in the data set on MDA-MB-435s (SK3+) is reported as “ineffective in cell migration”.
Turning to `CCCCCOCC(O)CO[C@@H]1O[C@H](COC(C)=O)[C@@H](OC(C)=O)[C@H](OC(C)=O)[C@H]1OC(C)=O` (some centres unmarked) [HCG450], the Toxicity result in the data set on MDA-MB-435s [5] is listed as “Yes at 10 μM”. Besides, the 50% inhibitory concentration (IC50) with MDA-MB-435s [3] (setting [6]) was roughly 30 µM.
